PMC7394103 (Frontiers in Pharmacology, 2020)
Counter-ions that a name gives are not always drawn. Like-named read-outs stand apart in the source and are kept apart here.

Assays:
[1] = design: method as in Plotnikov et al., 2020; conditions: rats, i.p.; ref Plotnikov et al., 2020; cited from earlier work
[2] = tested on: c-Jun phosphorylation in FLS; design: method as in Schepetkin et al., 2015; conditions: ref Schepetkin et al., 2015; cited from earlier work
[3] = design: method as in Schepetkin et al., 2012; conditions: mice, 30 mg/kg i.p., serum; ref Schepetkin et al., 2012; cited from earlier work
CIA in DBA1/J mice = conditions: ref Schepetkin et al., 2015, cited from earlier work
[4] = tested on: IL-6 secretion by synovial SW982 cells; assay: IL-1β-induced IL-6 secretion by SW982 cells (ELISA); format: cell-based, human; conditions: Homo sapiens, SW982; shorter incubation period (12 h), TRYP absent; read-out: IC50, IL-1β-induced IL-6 secretion by SW982 cells
Protocol: FLS, HUVEC, SW982, and THP-1 cells were plated in 96 well plates (10^4 to 10^5 cells/well) for 48 h before treatment. At 2 days post-confluency, the cells were serum-starved and washed twice (with the exception of THP-1 cell, which were not washed) with FBS-free medium prior to the addition of test compounds. […] Culture supernatants were collected and stored at –80°C. The levels of MMP-1 and MMP-3 were determined in culture supernatants using commercially available ELISA kits according to the manufacturer’s instructions (R&D System, Minneapolis, MN, USA). IL-6 levels were also determined in the supernatants using a human IL-6 ELISA kit (BD Biosciences, San Jose, CA, USA).

For `ON=C1c2ccccc2-c2nc3ccccc3nc21` [IQ-1S, 11H-indeno[1,2-b]quinoxalin-11-one oxime salt], which half-life in circulation [1] is on record?
The half-life in circulation was 12 h.

What about the “time of peak serum concentration” value [1] of the same molecule?
Its value is 5 min.

And the c-Jun phosphorylation [2]?
Its c-Jun phosphorylation is “inhibited c-Jun phosphorylation”.

What about the AUC 0–12 h [3] of the same molecule?
Its AUC 0–12 h is 7.4 µM·h.

And the “reduction of arthritis in the CIA model” value (CIA in DBA1/J mice; 5 mg/kg i.p.)?
The value was “not very effective”.

What about the “reduction of arthritis in the CIA model” value (CIA in DBA1/J mice; 30 and 50 mg/kg i.p.) of the same molecule?
The value was “equally effective”.

With `O=C1c2ccccc2-c2nc3ccccc3nc21` [IQ-18] as the molecule, how does the “anti-inflammatory activity or therapeutic effects in CIA” value (CIA in DBA1/J mice; 2012, Schepetkin et al.) read?
The value was “did not have any anti-inflammatory activity or therapeutic effects in CIA”.

With `Oc1c2ccccc2c2c3c(cccc13)N=N2` [SP600125, reference compound] as the molecule, how does the IC50 [4] read?
The IC50 was 1300 ± 500 nM.
